From patent publication US5679638A, “Method for treating a tumor with a chemotherapeutic agent” (Biopure Corporation, priority 1993, dated 1997)
Where “and” joins values, the source holds several entries; their conditions need not be identical. Equal values may be shown once. Where a name gives a salt, the structure may show the parent alone.

Legend:
Lewis lung carcinoma = Lewis lung carcinoma growth delay; assay type: in vivo, mouse (male C57BL); conditions: for Lewis lung carcinoma growth delay, Mean Days: NSAID days 4-18
Protocol: (§1) The Lewis lung tumor was carried in male C57BL mice (Taconic Laboratories, Germantown, N.Y.). For the experiments, 2×10^6 tumor cells prepared from a brei of several stock tumors were implanted subctaneously into the legs of male mice aged 8-10 weeks. […] Animals bearing Lewis lung tumors were treated daily with intraperitoneal Mino (10 mg/kg), Diflun (15 mg/kg) or Sulin (15 mg/kg) on days 4-18 following tumor implantation. When the tumors had reached a volume of approximately 100 mm^3 (day 7 after tumor cell implantation), cytotoxic therapy was initiated.
(§2) Therapy consisted of treatment with an antitumor alkylating agent, an antitumor antimetabolite, a non-steroidal anti-inflammatory drug (NSAID) and/or UPHS. […] CTX therapy consisted of three successive 150 mg/kg CTX doses administered by intraperitoneal injections on days 7, 9 and 11. BCNU therapy consisted of three successive 15 mg/Kg BCNU doses administered by intraperitoneal injections on days 7, 9 and 11. Therapy with the antimetabolite 5-fluorouracil(5-FU) consisted of 4 successive 40 mg/kg 5-FU doses administered by intraperitoneal injections daily on days 7 to 11. The 5-FU was purchased from Sigma Chemical Co., St. Louis, Mo. Fourteen doses of 10 mg/kg of NSAID were administered daily by intraperitoneal injections on days 4 to 18. UPHS was injected into the tail vein in 8 ml/kg doses daily on days 7-11.
The progress of each tumor was measured thrice weekly until it had reached a volume of 500 mm^3. Tumor growth delay was calculated as the number of days required for each treated tumor to reach a volume of 500 mm^3 as compared with untreated control tumors. Each treatment group comprised six animals and the experiment was repeated three times.
On the twentieth day after the subcutaneous tumor implantation, the delay in Lewis Lung Carcinoma tumor growth was evaluated. Tumor growth delay data is presented as the mean value ±SE calculated for the treatment group as compared with the control group.

[1] = system: Lewis lung carcinoma lung metastases; assay: Lung metastases of Lewis lung carcinoma; assay type: in vivo, mouse (male C57BL); parameters: Lung Metastases: unit not given here
Protocol: as §1
as §2, with “7-11. […]” for “7-11.”

[2] = system: intracranial 9L gliosarcoma; assay: Life span of rats with intracranial 9L gliosarcoma; assay type: in vivo, rat (male Fischer 344)
Protocol: (§3) The 9L gliosarcoma (9L) cells were obtained as a gift of 9L/SF gliosarcoma cells from Dr. Dennis Dean, University of California, San Francisco. These cells were maintained in culture in .varies.-MEM (Grand Island Biological Co., Grand Island, N.Y.) and supplemented with 10% fetal bovine serum (Sterile Systems, Inc., Logan, Utah) and with antibiotics. The 9L cells (4×10^4) in 10 μL of media without serum were implanted intracranially in male Fischer 344 rats (Taconic Farms, Germantown, N.Y.) weighing 200-250 gm on day 0. Each rat was anesthetized with sodium pentobarbital. A midline scalp incision was made and a hole was bored through the skull with 23 gauge needle at a point 2 mm lateral to the midline. The cell suspension was injected into the right frontal lobe at a depth of 3 mm from the dural surface. The needle was removed and the hole filled with dental cement. The scalp was sealed with a surgical clip. Two days later 9L cells (2×10^6) were implanted subcutaneously into the flank of each animal. When the tumors were approximately 100 mm^3 in volume, 7 days after tumor cell implantation, 8 ml/kg of UPHS was injected via the tail vein. After injecting the UPHS, administration of chemotherapeutic agents was initiated. […] BCNU therapy consisted of three 15 mg/kg BCNU doses administered by intraperitoneal injection days 7, 9 and 11. CTX and ifosfamide (IFOS) therapy consisted of three 100 mg/kg CTX or IFOS doses administered by intraperitoneal injection on days 7, 9 and 11. For the BCNU, CTX and IFOS therapies, UPHS was intravenously administered prior to each chemotherapeutic agent injection on days 7, 9 and 11. The IFOS was purchased from the Dana-Farber Cancer Institute. Survival of animals was monitored daily. Animals that were moribund or unable to reach food or water were killed by CO2 inhalation.
The effect of the treatments on the growth of the intracranial tumor was determined by the increase in life span of treated groups compared with the untreated controls. A percentage increase in life span of 25% or more is therapeutically significant.

[3] = system: subcutaneous 9L gliosarcoma; assay: Subcutaneous 9L gliosarcoma tumor growth delay; assay type: in vivo, rat (male Fischer 344)
Protocol: as §3
The progress of each subcutaneous tumor was measured 3 times/week until it reached a volume of 500 mm^3. Tumor growth delay was calculated as the number of days for each individual tumor to reach 500 mm^3 compared with untreated controls. Each treatment group had 4 animals and the experiment was repeated twice. Days of tumor growth delay are the mean ±SE for the treatment group compared with the control.

[4] = WITH UPHS (8 ml/kg daily days 7-11), CDDP or PAM 10 mg/kg, CTX 3 x 150, BCNU 3 x 15, 5-FU 40 mg/kg
[5] = WITHOUT UPHS, CDDP or PAM 10 mg/kg day 7, CTX 3 x 150, BCNU 3 x 15 mg/kg days 7, 9, 11, 5-FU 40 mg/kg
[6] = relative statement among BCNU, CTX, CDDP, IFOS

Compound | Lewis lung carcinoma growth delay, Mean Days (Lewis lung carcinoma; [4]) | Lewis lung carcinoma growth delay, Mean Days (Lewis lung carcinoma; [5]) | Increase of growth delay by addition of UPHS (Lewis lung carcinoma; drug + UPHS vs drug) | Lung Metastases ([1]; WITH UPHS) | Lung Metastases (% Large) ([1]; WITH UPHS) | Lung Metastases ([1]; WITHOUT UPHS) | Lung Metastases (% Large) ([1]; WITHOUT UPHS) | % Increased from Control (life span) ([2]; Table II, vs untreated control) | Survival Days ([2]; Table II, control 26 ± 2.2 days, CDDP 8 mg/kg day 7, BCNU 3 x 15, CTX or IFOS 3 x 100 mg/kg days 7, 9, 11, UPHS 8 ml/kg) | Increase in life span with UPHS prior to the drug therapy ([2]; UPHS prior to drug, vs untreated control) | Significance of increase in life span, drug alone ([2]; drug alone, 25% or more is therapeutically significant) | Increase in therapeutic response upon addition of UPHS ([2]; intracranial (life span) and subcutaneous (growth delay) 9L tumors) | Effectiveness against intracranial 9L tumors [2, 6] | Subcutaneous 9L Tumor Growth Delay, Mean Days ([3]; Table III, days to 500 mm^3 vs control (19.5 ± 0.5 days), CDDP 8 mg/kg day 7, BCNU 3 x 15, CTX or IFOS 3 x 100 mg/kg, UPHS 8 ml/kg) | Increase in tumor growth delay by prior administration of UPHS ([3]; UPHS + drug vs drug alone) | Effectiveness against subcutaneous 9L tumors [3, 6] | Effect of addition of NSAIDs (with or without UPHS) to cytotoxic agents on growth delay (Lewis lung carcinoma; mouse, in vivo)
O=c1[nH]cc(F)c(=O)[nH]1 [5-FU, 5-fluorouracil] | 6.3 ± 0.5 days | 5.4 ± 0.4 days | also enhanced, to a lesser degree | 15 | 40% | 21 | 52% | – | – | – | – | – | – | – | – | – | –
O=C(O)c1cc(-c2ccc(F)cc2F)ccc1O [Diflun, Diflunisal] | 0.9 ± 0.3 days | 0.3 ± 0.2 days | – | 20 | 55% | 20 | 51% | – | – | – | – | – | – | – | – | – | –
O=P1(NCCCl)OCCCN1CCCl (centres unmarked) [IFOS, ifosfamide] | – | – | – | – | – | – | – | 19% and 38% | 30.9 days and 35.9 days | 38% | did not reach significance | greatest increases in therapeutic response upon addition of UPHS | least effective treatments for intracranial 9L tumors | 10.4 ± 0.9 days | 1.4 fold | very effective treatments for subcutaneously growing 9L tumors | –
CN(C)c1ccc(O)c2c1C[C@H]1C[C@H]3[C@H](N(C)C)C(O)=C(C(N)=O)C(=O)[C@@]3(O)C(O)=C1C2=O [Mino, minocycline hydrochloride] | 1.0 ± 0.4 days | 0.8 ± 0.3 days | – | 20 | 65% | 20 | 50% | – | – | – | – | – | – | – | – | – | –
CC1=C(CC(=O)O)c2cc(F)ccc2/C1=C\c1ccc([S+](C)[O-])cc1 (centres unmarked) [Sulin, Sulindac] | 0.5 ± 0.3 days | 1.2 ± 0.4 days | – | 21 | 57% | 19 | 55% | – | – | – | – | – | – | – | – | – | providing the best NSAID results
